According to US8188064B2, “Vitamin D analogs for obesity prevention and treatment” (Wisconsin Alumni Research Foundation, priority 2003, dated 2012):
Entries after “also recorded” stand apart in the source; their conditions may differ.

Tests used:
[1] = molecular target: T1, full-length recombinant rat vitamin D receptor (Rattus norvegicus, UniProt P13053); assay: Vitamin D receptor binding (competition with 3H-1,25(OH)2D3); conditions: for binding to the vitamin D receptor, compared to 1α,25(OH)2D3: result in words, competition for tritiated hormone binding
T1 construct: Full-length recombinant rat receptor was expressed in E. coli; histidine tag (C); made in house; host or cells: E. coli BL21(DE3) Codon Plus RIL
T1 sequence (P13053 1-423): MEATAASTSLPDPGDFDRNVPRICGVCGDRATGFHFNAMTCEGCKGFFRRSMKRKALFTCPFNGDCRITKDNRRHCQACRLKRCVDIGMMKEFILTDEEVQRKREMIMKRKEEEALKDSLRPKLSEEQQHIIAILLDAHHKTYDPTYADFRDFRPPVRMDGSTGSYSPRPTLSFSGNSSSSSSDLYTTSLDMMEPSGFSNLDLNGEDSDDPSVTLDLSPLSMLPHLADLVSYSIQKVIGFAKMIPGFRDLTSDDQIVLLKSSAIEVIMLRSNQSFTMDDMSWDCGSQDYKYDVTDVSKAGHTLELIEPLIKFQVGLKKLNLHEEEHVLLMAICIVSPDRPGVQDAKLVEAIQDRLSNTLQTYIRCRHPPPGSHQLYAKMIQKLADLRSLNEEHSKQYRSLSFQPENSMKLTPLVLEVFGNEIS
Method: Full-length recombinant rat receptor was expressed in E. coli BL21(DE3) Codon Plus RIL cells and purified to homogeneity using two different column chromatography systems. The first system was a nickel affinity resin that utilizes the C-terminal histidine tag on this protein. The protein that was eluted from this resin was further purified using ion exchange chromatography (S-Sepharose Fast Flow). Aliquots of the purified protein were quick frozen in liquid nitrogen and stored at −80° C. until use. For use in binding assays, the protein was diluted in TEDK50 (50 mM Tris, 1.5 mM EDTA, pH 7.4, 5 mM DTT, 150 mM KCl) with 0.1% Chaps detergent. The receptor protein and ligand concentration was optimized such that no more than 20% of the added radiolabeled ligand was bound to the receptor.
Unlabeled ligands were dissolved in ethanol and the concentrations determined using UV spectrophotometry (1,25(OH)2D3: molar extinction coefficient=18,200 and λmax=265 nm; Analogs: molar extinction coefficient=42,000 and λmax=252 nm). Radiolabeled ligand (^3H-1,25(OH)2D3, ˜159 Ci/mmole) was added in ethanol at a final concentration of 1 nM.
Radiolabeled and unlabeled ligands were added to 100 mcl of the diluted protein at a final ethanol concentration of ≦10%, mixed and incubated overnight on ice to reach binding equilibrium. The following day, 100 mcl of hydroxylapatite slurry (50%) was added to each tube and mixed at 10-minute intervals for 30 minutes. The hydroxylapaptite was collected by centrifugation and then washed three times with Tris-EDTA buffer (50 mM Tris, 1.5 mM EDTA, pH 7.4) containing 0.5% Titron X-100. After the final wash, the pellets were transferred to scintillation vials containing 4 ml of Biosafe II scintillation cocktail, mixed and placed in a scintillation counter. Total binding was determined from the tubes containing only radiolabeled ligand.

[2] = system: Human promyelocytic leukemia (HL60) cells; assay: HL-60 differentiation (nitro blue tetrazolium reduction); assay type: cell-based; conditions: result in words
Method: The study drugs were dissolved in ethanol and the concentrations determined using UV spectrophotometry. Serial dilutions were prepared so that a range of drug concentrations could be tested without changing the final concentration of ethanol (≦0.2%) present in the cell cultures.
Human promyelocytic leukemia (HL60) cells were grown in RPMI-1640 medium containing 10% fetal bovine serum. The cells were incubated at 37° C. in the presence of 5% CO2.
HL60 cells were plated at 1.2×10^5 cells/ml. Eighteen hours after plating, cells in duplicate were treated with drug. Four days later, the cells were harvested and a nitro blue tetrazolium reduction assay was performed (Collins et al., 1979; J. Exp. Med. 149:969-974). The percentage of differentiated cells was determined by counting a total of 200 cells and recording the number that contained intracellular black-blue formazan deposits. Verification of differentiation to monocytic cells was determined by measuring phagocytic activity (data not shown).

[3] = system: 24-hydroxylase (24Ohase) gene promoter in ROS 17/2.8 (bone) cells; assay: In vitro transcription assay (luciferase reporter); assay type: cell-based; conditions: result in words
Method: Transcription activity was measured in ROS 17/2.8 (bone) cells that were stably transfected with a 24-hydroxylase (24Ohase) gene promoter upstream of a luciferase reporter gene (Arbour et al., 1998). Cells were given a range of doses. Sixteen hours after dosing the cells were harvested and luciferase activities were measured using a luminometer. RLU=relative luciferase units.

[4] = Intestinal calcium transport (everted gut sac); assay type: in vivo; conditions: result in words, vitamin D deficient rat model, compared to 1α,25(OH)2D3
Method: (§1) Male, weanling Sprague-Dawley rats were placed on Diet 11 (0.47% Ca) diet+AEK for one week followed by Diet 11 (0.02% Ca)+AEK for 3 weeks. The rats were then switched to a diet containing 0.47% Ca for one week followed by two weeks on a diet containing 0.02% Ca. Dose administration began during the last week on 0.02% calcium diet. Four consecutive ip doses were given approximately 24 hours apart. Twenty-four hours after the last dose, blood was collected from the severed neck and the concentration of serum calcium determined as a measure of bone calcium mobilization. The first 10 cm of the intestine was also collected for intestinal calcium transport analysis using the everted gut sac method.

[5] = Bone calcium mobilization (serum calcium on low calcium diet); assay type: in vivo, rat; conditions: result in words; vitamin D deficient rat model, compared to 1α,25(OH)2D3
Method: as §1

3T3-L1 cells = assay: Inhibition of 3T3-L1 differentiation into mature adipocytes (Oil-Red-O staining); assay type: cell-based, murine; conditions: for inhibition of differentiation of 3T3-L1 cells into mature adipocytes (Oil-Red-O staining): result in words, MDI-treated cells, staining at day 10
Method: Various 19-nor vitamin D analogs were or are tested and found to inhibit the differentiation of preadipocytes into mature adipocytes, to reduce body fat, to inhibit an increase in PPARγ, C/EBPα, and/or SCD-1 gene transcription and to be useful in treating and preventing obesity both in vivo and in vitro. The undifferentiated preadipocyte 3T3-L1 subline, a derivative of the original mouse fibroblast cell line, is one of the most accepted models for investigating the adipogenesis process and was used for the analysis. Two days after reaching confluence, 3T3-L1 cells can be induced to differentiate into adipocytes (see Mackall, J. C. et al. J. Biol. Chem., 251(20), 6462-6464 (1976)) with the addition of a cAMP phosphodiesterase inhibitor, dexamethasone (a glucocortoid), and insulin. […] The induction of PPARγ and C/EBPα is required for adipocyte differentiation. […] SCD-1 is an enzyme found in adipocytes that converts saturated fatty acids (C16 and C18) to their monounsaturated forms (C16:1 and C18:1). The deposition of triglyceride can also be detected as early as 3 days, and by the 7th to 14th days post-confluence, greater than 80% of the cells in the monolayer stain positively with Oil-red-O.

SCD-1 mRNA = assay: Inhibition of SCD-1 mRNA induction in 3T3-L1 cells (RT-PCR); assay type: cell-based, murine; conditions: for inhibition of SCD-1 mRNA induction: result in words, MDI-treated 3T3-L1 cells
From the text: Chomczynski, P. et al., Anal. […] NO: 4)).

Row | binding to the vitamin D receptor, compared to 1α,25(OH)2D3 [1] | intestinal calcium transport activity [4] | SMILES | differentiation of HL-60 cells, compared to 1α,25(OH)2D3 [2] | transcriptional activity in bone cells, compared to 1α,25(OH)2D3 [3] | bone calcium mobilization activity [5] | inhibition of differentiation of 3T3-L1 cells into mature adipocytes (Oil-Red-O staining) (3T3-L1 cells) | other results
1 | as or nearly effective as calcitriol |  | C=C1[C@H](O)CC(=C/C=C2\CCC[C@]3(C)[C@@H]([C@@H](C)CCCC)CC[C@@H]23)C[C@H]1O [(20S)OM] | almost as potent | about the same transcriptional activity | very little bone calcium mobilization activity | still possess activity | binding to the vitamin D receptor, compared to 1α,25(OH)2D3 ([1]; listed as OM): bound equally well; intestinal calcium transport activity ([4]; listed as (20S)-OM): less activity; intestinal calcium transport activity ([4]; listed as OM): very little activity; inhibition of differentiation of 3T3-L1 cells into mature adipocytes (Oil-Red-O staining) (3T3-L1 cells; listed as OM): increased slightly; inhibition of SCD-1 mRNA induction (SCD-1 mRNA): still possess activity; inhibition of SCD-1 mRNA induction (SCD-1 mRNA; listed as OM): increased slightly
2 | binds poorly, if at all |  | C=C1[C@H](O)C/C(=C/C=C2\CCC[C@]3(C)[C@@H]([C@@H](C)CC)CC[C@@H]23)C[C@@H]1O [(1β,20S)2MbisP, (20S)-1β-hydroxy-2-methylene-19-nor-bishomo-pregnacalciferol, reference compound] |  |  |  |  | inhibition of differentiation of 3T3-L1 cells into mature adipocytes (Oil-Red-O staining) (3T3-L1 cells; listed as 1-(20S)2-MbisP): unable to inhibit; inhibition of differentiation of 3T3-L1 cells into mature adipocytes (Oil-Red-O staining) (3T3-L1 cells; listed as (1βOH, 20S)2M-BisP): ineffective; inhibition of SCD-1 mRNA induction (SCD-1 mRNA; listed as 1-(20S)2-MbisP): unable to inhibit; inhibition of SCD-1 mRNA induction (SCD-1 mRNA; listed as (1βOH, 20S)2M-BisP): ineffective
3 | bound equally well | very little activity | C=C1[C@H](O)CC(=C/C=C2\CCC[C@@H]3[C@@H](C(C)C)CC[C@@H]23)C[C@H]1O [18,19-dinor-2MP, 2-methylene-18,19-dinor-1α-hydroxyhomopregnacalciferol] | almost as potent | about the same transcriptional activity | very little bone calcium mobilization activity |  | 
4 | bound equally well |  | CCCC[C@H](C)[C@H]1CC[C@H]2/C(=C/C=C3C[C@@H](O)C(C)[C@H](O)C3)CCC[C@]12C (stereo partly drawn) [2α-methyl-19,26,27-trinor, 2α-methyl-19,26,27-trinor-(20S)-1α-hydroxyvitamin D3] | almost as potent | similar | very little bone calcium mobilization activity |  | 
5 | as well as the native hormone |  | C[C@H](/C=C/[C@H](C)C(C)(C)O)[C@H]1CC[C@H]2/C(=C/C=C3C[C@@H](O)C[C@H](O)C3)CCC[C@]12C [19-nor-1α,25-dihydroxyvitamin D2, reference compound] |  |  | very low bone calcium mobilizing activity | equivalent in potency; also recorded: active | inhibition of differentiation of 3T3-L1 cells into mature adipocytes (Oil-Red-O staining) (3T3-L1 cells; listed as 19-nor-1α,25-dihydroxyvitamin D2): more active
6 |  | active | C=C1[C@H](O)CC(=C/C=C2\CCC[C@]3(C)[C@@H]([C@@H](C)CCCC(C)(C)C)CC[C@@H]23)C[C@H]1O [TMM] |  |  | active | inhibit; also recorded: effective | 
7 |  | less active | C=C1[C@H](O)CC(=C/C=C2\CCC[C@]3(C)[C@@H]([C@H](C)/C=C/[C@@H](C)C(C)(C)O)CC[C@@H]23)C[C@H]1O [(24epi)D2] |  |  | less active | improved; also recorded: active | higher affinity binding to the vitamin D receptor than the native hormone ([1]; higher affinity than native hormone): approximately 0.5 log units
8 | as or nearly effective as calcitriol | little, if any, activity | C=C1[C@H](O)CC(=C/C=C2\CCC[C@]3(C)[C@@H](CC)CC[C@@H]23)C[C@H]1O [2-Mpregna] |  |  | little, if any, activity | nearly as potent as the native hormone | inhibition of differentiation of 3T3-L1 cells into mature adipocytes (Oil-Red-O staining) (3T3-L1 cells; listed as 2Mpregna): still active; inhibition of differentiation of MDI-treated 3T3-L1 cells (oil-red-O staining) (3T3-L1 cells; tested at 1×10^−8.5 M): active; inhibition of SCD-1 mRNA induction (SCD-1 mRNA): nearly as potent as the native hormone; inhibition of SCD-1 mRNA induction (SCD-1 mRNA; listed as 2Mpregna): still active; inhibition of SCD1 mRNA induction (SCD-1 mRNA; tested at 1×10^−8.5 M): active
